Assay results as given in the supplement of paper PMC10307832.

Columns and labels:
Experiment in all cases: relative viability (nuclei count vs DMSO), 5 days (fraction); higher = more cells survive
[1] = compound: C1COCCN1CC2=CC(=O)C(=CO2)OCCCCCSC3=C4C=CC(=CC4=NC=C3)C(F)(F)F [EHT 1864] + CC1(C)CCC(c2ccc(Cl)cc2)=C(CN2CCN(c3ccc(C(=O)NS(=O)(=O)c4ccc(N[C@H](CCN5CCOCC5)CSc5ccccc5)c(S(=O)(=O)C(F)(F)F)c4)cc3)CC2)C1 [Navitoclax] (partner 0.5 µM)
Summary of the method: (§1)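 Each reported value is a median over duplicate plates. It expresses relative viability: treated-well nuclei count divided by vehicle-well nuclei count. Lung cancer cell lines in 1536-well plates were dosed by pin tool a day after seeding, alone with one drug or with a fixed anchor-drug dose plus five library-drug doses (not always all listed) in √10 steps, and nuclei were counted after 5 days.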

[2] = compound: C1COCCN1CC2=CC(=O)C(=CO2)OCCCCCSC3=C4C=CC(=CC4=NC=C3)C(F)(F)F [EHT 1864] + C[C@]1(O)C[C@@H](c2nc(-c3ccc4ccc(-c5ccccc5)nc4c3)c3c(N)nccn32)C1 [Linsitinib] (partner 1 µM)
Summary of the method: as §1

[3] = compound: C1COCCN1CC2=CC(=O)C(=CO2)OCCCCCSC3=C4C=CC(=CC4=NC=C3)C(F)(F)F [EHT 1864] + Cc1nc(NC(=O)N2CCC[C@H]2C(N)=O)sc1-c1ccnc(C(C)(C)C(F)(F)F)c1 [Alpelisib] (partner 2 µM)
Summary of the method: as §1

[4] = compound: C1COCCN1CC2=CC(=O)C(=CO2)OCCCCCSC3=C4C=CC(=CC4=NC=C3)C(F)(F)F [EHT 1864] + O=C(CCCCCCC(=O)Nc1ccccc1)NO [Vorinostat] (partner 1 µM)
Summary of the method: as §1

Cell Line: RERF-LC-KJ
- relative viability ([1]; first compound 0.04 µM): 0.985
- relative viability ([1]; first compound 0.1265 µM): 0.829
- relative viability ([1]; first compound 0.4 µM): 0.823
- relative viability ([1]; first compound 1.265 µM): 0.931
- relative viability ([1]; first compound 4 µM): 0.888
- relative viability ([2]; first compound 0.04 µM): 0.874
- relative viability ([2]; first compound 0.1265 µM): 0.884
- relative viability ([2]; first compound 0.4 µM): 0.861
- relative viability ([2]; first compound 1.265 µM): 0.861
- relative viability ([2]; first compound 4 µM): 0.847
- relative viability ([3]; first compound 0.04 µM): 0.759
- relative viability ([3]; first compound 0.1265 µM): 0.743
- relative viability ([3]; first compound 0.4 µM): 0.755
- relative viability ([3]; first compound 1.265 µM): 0.947
- relative viability ([3]; first compound 4 µM): 0.776
- relative viability ([4]; first compound 0.04 µM): 0.676
- relative viability ([4]; first compound 0.1265 µM): 0.585
- relative viability ([4]; first compound 0.4 µM): 0.69
- relative viability ([4]; first compound 1.265 µM): 0.735
- relative viability ([4]; first compound 4 µM): 0.718

Cell Line: SK-MES-1
- relative viability ([1]; first compound 0.04 µM): 1.3
- relative viability ([1]; first compound 0.1265 µM): 1.13
- relative viability ([1]; first compound 0.4 µM): 1.29
- relative viability ([1]; first compound 1.265 µM): 1.31
- relative viability ([1]; first compound 4 µM): 1.17
- relative viability ([2]; first compound 0.04 µM): 1.06
- relative viability ([2]; first compound 0.1265 µM): 1.06
- relative viability ([2]; first compound 0.4 µM): 1.17
- relative viability ([2]; first compound 1.265 µM): 1.16
- relative viability ([2]; first compound 4 µM): 1.09
- relative viability ([3]; first compound 0.04 µM): 0.934
- relative viability ([3]; first compound 0.1265 µM): 0.823
- relative viability ([3]; first compound 0.4 µM): 0.884
- relative viability ([3]; first compound 1.265 µM): 0.92
- relative viability ([3]; first compound 4 µM): 0.906
- relative viability ([4]; first compound 0.04 µM): 1.1
- relative viability ([4]; first compound 0.1265 µM): 0.983
- relative viability ([4]; first compound 0.4 µM): 1.1
- relative viability ([4]; first compound 1.265 µM): 1.1
- relative viability ([4]; first compound 4 µM): 1.03

Cell Line: LC-2-ad
- relative viability ([1]; first compound 0.04 µM): 0.49
- relative viability ([1]; first compound 0.4 µM): 0.49
- relative viability ([1]; first compound 1.265 µM): 0.382
- relative viability ([1]; first compound 4 µM): 0.39
- relative viability ([2]; first compound 0.04 µM): 0.862
- relative viability ([2]; first compound 0.4 µM): 0.806
- relative viability ([2]; first compound 1.265 µM): 0.804
- relative viability ([2]; first compound 4 µM): 0.79
- relative viability ([3]; first compound 0.04 µM): 0.837
- relative viability ([3]; first compound 0.4 µM): 0.831
- relative viability ([3]; first compound 1.265 µM): 0.9
- relative viability ([3]; first compound 4 µM): 0.82
- relative viability ([4]; first compound 0.04 µM): 0.659
- relative viability ([4]; first compound 0.1265 µM): 0.432
- relative viability ([4]; first compound 0.4 µM): 0.677
- relative viability ([4]; first compound 1.265 µM): 0.648
- relative viability ([4]; first compound 4 µM): 0.625

Cell Line: HCC-15
- relative viability ([1]; first compound 0.04 µM): 0.732
- relative viability ([1]; first compound 0.1265 µM): 0.576
- relative viability ([1]; first compound 0.4 µM): 0.682
- relative viability ([1]; first compound 1.265 µM): 0.649
- relative viability ([1]; first compound 4 µM): 0.736
- relative viability ([2]; first compound 0.04 µM): 0.877
- relative viability ([2]; first compound 0.1265 µM): 0.827
- relative viability ([2]; first compound 0.4 µM): 0.888
- relative viability ([2]; first compound 1.265 µM): 0.86
- relative viability ([2]; first compound 4 µM): 0.922
- relative viability ([3]; first compound 0.04 µM): 0.902
- relative viability ([3]; first compound 0.1265 µM): 0.797
- relative viability ([3]; first compound 0.4 µM): 0.903
- relative viability ([3]; first compound 1.265 µM): 0.823
- relative viability ([3]; first compound 4 µM): 0.842
- relative viability ([4]; first compound 0.04 µM): 0.77
- relative viability ([4]; first compound 0.4 µM): 0.838
- relative viability ([4]; first compound 1.265 µM): 0.81
- relative viability ([4]; first compound 4 µM): 0.929

Cell Line: NCI-H2405
- relative viability ([1]; first compound 0.04 µM): 0.978
- relative viability ([1]; first compound 0.1265 µM): 0.832
- relative viability ([1]; first compound 0.4 µM): 0.965
- relative viability ([1]; first compound 4 µM): 0.725
- relative viability ([2]; first compound 0.04 µM): 0.922
- relative viability ([2]; first compound 0.1265 µM): 0.933
- relative viability ([2]; first compound 0.4 µM): 1.06
- relative viability ([2]; first compound 4 µM): 0.851
- relative viability ([3]; first compound 0.04 µM): 0.789
- relative viability ([3]; first compound 0.1265 µM): 0.767
- relative viability ([3]; first compound 0.4 µM): 0.877
- relative viability ([3]; first compound 4 µM): 0.719
- relative viability ([4]; first compound 0.04 µM): 1.03
- relative viability ([4]; first compound 0.1265 µM): 0.895
- relative viability ([4]; first compound 0.4 µM): 1.06
- relative viability ([4]; first compound 1.265 µM): 0.963
- relative viability ([4]; first compound 4 µM): 0.909

Cell Line: LXF-289
- relative viability ([1]; first compound 0.04 µM): 0.952
- relative viability ([1]; first compound 0.1265 µM): 0.837
- relative viability ([1]; first compound 0.4 µM): 0.885
- relative viability ([1]; first compound 1.265 µM): 0.811
- relative viability ([1]; first compound 4 µM): 0.939
- relative viability ([2]; first compound 0.04 µM): 0.926
- relative viability ([2]; first compound 0.1265 µM): 0.929
- relative viability ([2]; first compound 0.4 µM): 0.883
- relative viability ([2]; first compound 1.265 µM): 0.898
- relative viability ([2]; first compound 4 µM): 0.821
- relative viability ([3]; first compound 0.04 µM): 1.1
- relative viability ([3]; first compound 0.1265 µM): 1
- relative viability ([3]; first compound 0.4 µM): 1
- relative viability ([3]; first compound 1.265 µM): 0.968
- relative viability ([3]; first compound 4 µM): 0.912
- relative viability ([4]; first compound 0.04 µM): 0.773
- relative viability ([4]; first compound 0.1265 µM): 0.697
- relative viability ([4]; first compound 0.4 µM): 0.712
- relative viability ([4]; first compound 1.265 µM): 0.735
- relative viability ([4]; first compound 4 µM): 0.734

Cell Line: CAL-12T
- relative viability ([1]; first compound 0.04 µM): 1.03
- relative viability ([1]; first compound 0.1265 µM): 1.07
- relative viability ([1]; first compound 0.4 µM): 1.04
- relative viability ([1]; first compound 1.265 µM): 1.19
- relative viability ([1]; first compound 4 µM): 1.22
- relative viability ([2]; first compound 0.04 µM): 0.824
- relative viability ([2]; first compound 0.1265 µM): 0.667
- relative viability ([2]; first compound 0.4 µM): 0.79
- relative viability ([2]; first compound 1.265 µM): 0.824
- relative viability ([2]; first compound 4 µM): 0.838
- relative viability ([3]; first compound 0.04 µM): 1.23
- relative viability ([3]; first compound 0.1265 µM): 1.14
- relative viability ([3]; first compound 0.4 µM): 1.08
- relative viability ([3]; first compound 1.265 µM): 1.25
- relative viability ([3]; first compound 4 µM): 1.05
- relative viability ([4]; first compound 0.04 µM): 0.671
- relative viability ([4]; first compound 0.1265 µM): 0.553
- relative viability ([4]; first compound 0.4 µM): 0.644
- relative viability ([4]; first compound 1.265 µM): 0.775
- relative viability ([4]; first compound 4 µM): 0.812

Cell Line: COR-L23
- relative viability ([1]; first compound 0.04 µM): 1.01
- relative viability ([1]; first compound 0.1265 µM): 0.901
- relative viability ([1]; first compound 0.4 µM): 1.01
- relative viability ([1]; first compound 1.265 µM): 0.979
- relative viability ([1]; first compound 4 µM): 0.932
- relative viability ([2]; first compound 0.04 µM): 0.94
- relative viability ([2]; first compound 0.1265 µM): 0.921
- relative viability ([2]; first compound 0.4 µM): 0.942
- relative viability ([2]; first compound 1.265 µM): 0.949
- relative viability ([2]; first compound 4 µM): 0.873
- relative viability ([3]; first compound 0.04 µM): 0.832
- relative viability ([3]; first compound 0.1265 µM): 0.878
- relative viability ([3]; first compound 0.4 µM): 0.815
- relative viability ([3]; first compound 1.265 µM): 0.855
- relative viability ([3]; first compound 4 µM): 0.76
- relative viability ([4]; first compound 0.04 µM): 0.476
- relative viability ([4]; first compound 0.1265 µM): 0.333
- relative viability ([4]; first compound 0.4 µM): 0.476
- relative viability ([4]; first compound 1.265 µM): 0.435
- relative viability ([4]; first compound 4 µM): 0.433

Cell Line: NCI-H1755
- relative viability ([1]; first compound 0.04 µM): 1.02
- relative viability ([1]; first compound 0.1265 µM): 0.927
- relative viability ([1]; first compound 0.4 µM): 0.94
- relative viability ([1]; first compound 1.265 µM): 0.979
- relative viability ([1]; first compound 4 µM): 0.869
- relative viability ([2]; first compound 0.04 µM): 0.983
- relative viability ([2]; first compound 0.1265 µM): 0.907
- relative viability ([2]; first compound 0.4 µM): 0.956
- relative viability ([2]; first compound 1.265 µM): 0.927
- relative viability ([2]; first compound 4 µM): 0.962
- relative viability ([3]; first compound 0.04 µM): 0.897
- relative viability ([3]; first compound 0.1265 µM): 0.844
- relative viability ([3]; first compound 0.4 µM): 0.861
- relative viability ([3]; first compound 1.265 µM): 0.945
- relative viability ([3]; first compound 4 µM): 0.877
- relative viability ([4]; first compound 0.04 µM): 1
- relative viability ([4]; first compound 0.1265 µM): 0.808
- relative viability ([4]; first compound 0.4 µM): 0.748
- relative viability ([4]; first compound 1.265 µM): 0.75
- relative viability ([4]; first compound 4 µM): 0.811
